Results as given in the supplement of paper PMC3974653.
Where a name gives a salt, the structure may show the parent alone.

What follows are compounds tested on MTT (mouse pheochromocytoma) (assay: IC50 of cell viability (ATP content)). Conditions: (24 or 48 h).
Method in brief: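 Library compounds were tested at 8 final concentrations (0.5 nM to 46 µM) on MTT mouse pheochromocytoma cells for 24 or 48 hrs, with readout by CellTiter-Glo ATP luminescence. Signals were normalised with positive-control wells at 100% and DMSO wells at 0%. IC50 values were obtained by a four-parameter logistic fit.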

Structure (SMILES)	IC50 of cell viability [µM]
NCC1CCC(N)C(O[C@@H]2C(O)[C@H](O[C@H]3OC(CO)C(O)C(N)C3O)[C@@H](N)C[C@H]2N)O1.O=[S+]([O-])(O)O (stereo partly drawn) [DIBEKACIN]	> 46
c1ccc2c(c1)sc1ccccc12 [DIBENZOTHIOPHENE]	> 46
CC(C)(C)c1ccc2c(S(=O)(=O)[O-])c(C(C)(C)C)ccc2c1 [DIBUNATE SODIUM]	> 46
CCCCCCCCCCCC(=O)[O][Sn]([CH2]CCC)([CH2]CCC)[O]C(=O)CCCCCCCCCCC [DIBUTYLTIN DILAURATE]	> 46
Cc1ccc2c(c1)[C@@H]1CN(C)CC[C@H]1N2 [DICARBINUM]	> 46
OCc1ccc(Cl)cc1Cl [DICHLOROBENZYL ALCOHOL]	> 46
ClC1=CC=C(C=C1)C(C#N)C2=C(Cl)C=C(C=C2Cl)N3\N=C/C(=O)NC3=O (stereo not drawn) [DICLAZURIL]	> 46
O=C([O-])Cc1ccccc1Nc1c(Cl)cccc1Cl.[Na+] [DICLOFENAC SODIUM]	> 46
COc1ccc(/C=C/C(=O)O)cc1 [DIETHANOLAMINE METHOXYCINNAMATE]	> 46
CCN(CC)C(C)C(=O)c1ccccc1 (stereo not drawn) [DIETHYLPROPION HYDROCHLORIDE]	> 46
CC/C(=C(/CC)c1ccc(OP(=O)(O)O)cc1)c1ccc(OP(=O)(O)O)cc1 [DIETHYLSTILBESTROL DIPHOSPHATE]	> 46
CCN(CC)C(=O)c1cccc(C)c1 [DIETHYLTOLUAMIDE]	> 46
CC(C(O)c1ccccc1)N(C)CCOC(c1ccccc1)c1ccccc1 (stereo not drawn) [DIFETEROL HYDROCHLORIDE]	> 46
CN1CCN(c2cc3c(cc2F)c(=O)c(C(=O)O)cn3-c2ccc(F)cc2)CC1 [DIFLOXACIN HYDROCHLORIDE]	> 46
CCCCC(=O)OCC(=O)[C@H]1[C@H](C)C[C@@H]2[C@@H]3C[C@@H](F)C4=CC(=O)C=C[C@]4(C)[C@@]3(F)[C@@H](O)C[C@@]21C [DIFLUCORTOLONE VALERATE]	> 46
CCCC(=O)O[C@@]1(CC[C@H]2C3C[C@H](F)\C4=C\C(=O)\C=C/C4(C)[C@@]3(F)[C@@H](O)CC12C)C(=O)COC(C)=O (stereo partly drawn) [DIFLUPREDNATE]	> 46
NNc1nnc(NN)c2ccccc12 [DIHYDRALAZINUM]	> 46
CN1C[C@H](C(=O)N[C@]2(C)O[C@@]3(O)[C@@H]4CCCN4C(=O)[C@H](Cc4ccccc4)N3C2=O)C[C@@H]2c3cccc4[nH]cc(c34)C[C@H]21 [DIHYDROERGOTAMINE]	> 46
CNC1C(OC2C(O[C@@H]3C(O)C(O)[C@@H](NC(=N)N)C(O)C3NC(=N)N)OC(C)[C@@]2(O)CO)OC(CO)C(O)C1O.O=[S+]([O-])(O)O (stereo partly drawn) [DIHYDROSTREPTOMYCIN SULFATE]	> 46
CC1CCC(O)C/C1=C\C=C1/CCCC2(C)C1CCC2C(C)/C=C/C(C)C(C)C (stereo not drawn) [DIHYDROTACHYSTEROL]	> 46
COc1cc(C(=O)OCCCN2CCCN(CCCOC(=O)c3cc(OC)c(OC)c(OC)c3)CC2)cc(OC)c1OC [DILAZEP]	> 46
COc1ccc([C@@H]2Sc3ccccc3N(CCN(C)C)C(=O)[C@@H]2OC(C)=O)cc1 [DILTIAZEM]	> 46
CCN(CC)CCOc1ccc2nc(N(C)C)sc2c1 [DIMAZOLE DIHYDROCHLORIDE]	> 46

Structure (SMILES)	IC50 of cell viability [µM]
COc1ccc2c(=O)c(C)c(-c3ccccc3)oc2c1CN(C)C [DIMEFLINE HYDROCHLORIDE]	> 46
CC(Cc1ccccc1)N(C)C (stereo not drawn) [DIMETAMFETAMINUM]	> 46
CC1(C)OC(=O)NC1=O [DIMETHADIONE]	> 46
CCCCCCCCCCCCCC(=O)OCC(COP(=O)([O-])OCC[N+](C)(C)C)OC(=O)CCCCCCCCCCCCC (stereo not drawn) [DIMYRISTOYL LECITHIN]	> 46
Cc1c(C(N)=O)cc([N+](=O)[O-])cc1[N+](=O)[O-] [DINITOLMIDE]	> 46
CCCCC[C@H](O)/C=C/[C@H]1[C@H](O)CC(=O)[C@@H]1C/C=C\CCCC(=O)O [DINOPROSTONE]	> 46
COC1=CC=C(C=C1O)C/2=C/C(=O)C3=C(O)C=C(O[C@H]4OC(COC5OC(C)C(O)C(O)[C@H]5O)C(O)C(O)C4O)C=C3O2 (stereo partly drawn) [DIOSMIN]	> 46
CN(C)CCOC(c1ccccc1)c1ccccc1 [DIPHENHYDRAMINE]	> 46
CCOC(=O)C1(c2ccccc2)CCN(CCC(C#N)(c2ccccc2)c2ccccc2)CC1 [DIPHENOXYLATE HYDROCHLORIDE]	> 46
c1ccc(-c2nc[nH]c2-c2ccccc2)cc1 [DIPHENYLIMIDAZOLE]	> 46
C[N+]1(CC2COC(c3ccccc3)(c3ccccc3)O2)CCCCC1 (stereo not drawn) [DIPHENYLPIPERIDINOMETHYLDIOXOLAN IODIDE (Anacolin)]	> 46
CC[N+](CC)(CC)CCOC(=O)C(C1CCCC1)C1CCCC1 [DIPONIUM BROMIDE]	> 46
OCCN(CCO)c1nc(N2CCCCC2)c2nc(N(CCO)CCO)nc(N3CCCCC3)c2n1 [DIPYRIDAMOLE]	> 46
CC(=O)Oc1cccc(C(=O)O)c1OC(C)=O [DIPYROCETYL]	> 46
CC[C@H]1OC(=O)[C@H](C)[C@@H](O[C@H]2C[C@@](C)(OC)[C@@H](O)[C@H](C)O2)[C@H](C)[C@@H](O[C@@H]2O[C@H](C)C[C@H](N(C)C)[C@H]2O)[C@](C)(O)C[C@@H](C)[C@@H]2N[C@@H](COCCOC)O[C@H]([C@H]2C)[C@]1(C)O [DIRITHROMYCIN]	> 46
O=[N+]([O-])c1cc(I)c(O)c(I)c1 [DISOPHENOL SODIUM]	> 46
Cn1cc(NC(=O)c2cc(NC(=O)c3cc(NC=O)cn3C)cn2C)cc1C(=O)NCCC(=N)N [DISTAMYCIN A]	> 46
CCN(CC)C(=S)S [DITIOCARBUM NATRICUM]	> 46
CN(C)C(=O)Nc1ccc(Cl)c(Cl)c1 [DIURON]	> 46
CC(CCc1ccc(O)cc1)NCCc1ccc(O)c(O)c1 (stereo not drawn) [DOBUTAMINE]	> 46
CC(=O)O[C@@]12CO[C@@H]1C[C@H](O)[C@@]1(C)C(=O)[C@H](O)C3=C(C)[C@@H](OC(=O)C(O)[C@@H](NC(=O)OC(C)(C)C)c4ccccc4)C[C@@](O)([C@@H](OC(=O)c4ccccc4)[C@H]21)C3(C)C (stereo partly drawn) [DOCETAXEL]	> 46
CC/C=C\C/C=C\C/C=C\C/C=C\C/C=C\C/C=C\CCC(=O)O [DOCOSAHEXAENOIC ACID]	> 46
CCCCCCCCCCCCCCCCCCCCCCO [DOCOSANOL]	> 46

Structure (SMILES)	IC50 of cell viability [µM]
FC(F)(F)C(F)(F)C(F)(F)C(F)(F)C(F)(F)F [DODECAFLUOROPENTANE]	> 46
C[S+](=O)([O-])O.O.O=C(O[C@@H]1C[C@@H]2C[C@@H]3C[C@H](C1)N2CC3=O)c1c[nH]c2ccccc12 [DOLASETRON MESYLATE]	> 46
COc1cc2c(cc1OC)C(=O)C(CC1CCN(Cc3ccccc3)CC1)C2 (stereo not drawn) [DONEPEZIL HYDROCHLORIDE]	> 46
NCCc1ccc(O)c(O)c1 [DOPAMINE]	> 46
Cc1ccc(-n2nc(C(C)(C)C)cc2NC(=O)Nc2ccc(OCCN3CCOCC3)c3ccccc23)cc1 [DORAMAPIMOD]	> 46
O=[N+]([O-])c1nccn1CO[C@@H](CO)[C@H](O)CO [DORANIDAZOLE]	> 46
C[C@@H](O)[C@H]1C(=O)N2C(C(=O)O)=C(S[C@@H]3CN[C@H](CN[S+](N)(=O)[O-])C3)[C@H](C)[C@H]12 [DORIPENEM HYDRATE]	> 46
CCN1CC(CCN2CCOCC2)C(c2ccccc2)(c2ccccc2)C1=O (stereo not drawn) [DOXAPRAM HYDROCHLORIDE]	> 46
CCN(CC)CCOC(=O)C(c1ccccc1)C1CCCCC1.Cl (stereo not drawn) [DROFENINE HYDROCHLORIDE]	> 46
OCC(O)CN1CCN(c2ccccc2)CC1 (stereo not drawn) [DROPROPIZINE]	> 46
CN(C)/N=N/c1nc[nH]c1C(N)=O [Dacarbazine]	> 46
C#C[C@]1(O)CC[C@H]2[C@@H]3CCC4=Cc5oncc5C[C@]4(C)[C@H]3CC[C@@]21C [Danazol]	> 46
CN1C[C@@H]2C[C@H]1CN2c1cc2c(cc1F)c(=O)c(C(=O)O)cn2C1CC1 [Danofloxacin mesylate]	> 46
O=C1c2cccc(O)c2C(=O)c2c(O)cccc21 [Danthron]	> 46
Cc1c(Cn2ccnc2)c2ccccc2n1CCC(=O)O [Dazmegrel]	> 46
CN(C)CCO [Deanol]	> 46
N=C(N)N1CCc2ccccc2C1 [Debrisoquin sulfate]	> 46
CCCCCCCCCC(=O)O [Decanoic acid]	> 46
CCCCCCCCCCOCC(O)CN (stereo not drawn) [Decominol]	> 46
CC(=O)N(O)CCCCCNC(=O)CCC(=O)N(O)CCCCCNC(=O)CCC(=O)N(O)CCCCCN.C[S+](=O)([O-])O [Deferoxamine mesylate]	> 46
CC(=O)O[C@H]1CC[C@]\2(C)[C@@H]3CC[C@@]4(C)[C@H](CCC4=O)[C@@H]3C\C=C2C1 [Dehydroisoandosterone 3-acetate]	> 46
[Na+].C[C@]12CC[C@H]3[C@@H](C\C=C/4C[C@H](CC[C@]34C)O[S]([O-])(=O)=O)[C@@H]1CCC2=O [Dehydroisoandrosterone 3-sulfate sodium]	> 46
